This note sets out measurements from ChEMBL document CHEMBL1157917, “Structure-based rational design, synthesis and antifungal activity of oxime-containing azole derivatives” (2010).

What all share (type): functional
For one assay, the system named is Trichophyton rubrum. Description: Antifungal activity against Trichophyton rubrum after 7 days by serial dilution method. To be noted: 168 h.
Another assay deals with Pichia kudriavzevii. Description: Antifungal activity against Candida krusei after 24 hrs by serial dilution method.
Another assay has as its system Candida tropicalis. Nature of the assay: Antifungal activity against Candida tropicalis after 24 hrs by serial dilution method.
In another assay the test system is Candida albicans. Description: Antifungal activity against Candida albicans after 24 hrs by serial dilution method.
Another assay has as its system Cryptococcus neoformans. Description: Antifungal activity against Cryptococcus neoformans after 72 hrs by serial dilution method.
Another assay deals with Candida parapsilosis. Description: Antifungal activity against Candida parapsilosis after 24 hrs by serial dilution method. To be noted: Lodderomyces parapsilosis.
For the next assay, the system named is Aspergillus fumigatus. Description: Antifungal activity against Aspergillus fumigatus after 7 days by serial dilution method. The conditions noted are these: 168 h.

A word on the MIC80: it is an inhibitory concentration at the 80% level, which refers to growth in some studies and to a panel of isolates in others. A lower MIC80 goes with higher susceptibility.

Converted amounts (≈) assume the structure as drawn. Some results are limits rather than exact numbers.

`OC(CN1CCC(=NOCc2cccc(F)c2)CC1)(Cn1cncn1)c1ccc(F)cc1F` (racemic): the MIC80 turned out to be 0.0625 µg/mL (≈ 0.136 µM) in the assay with Trichophyton rubrum; 0.25 µg/mL (≈ 0.544 µM) in the assay on Pichia kudriavzevii; 0.016 µg/mL (≈ 0.0348 µM) in the assay on Candida tropicalis; 0.016 µg/mL (≈ 0.0348 µM) against Candida albicans; 0.016 µg/mL (≈ 0.0348 µM) in the assay on Cryptococcus neoformans; 0.016 µg/mL (≈ 0.0348 µM) in the assay on Candida parapsilosis. In the assay on Aspergillus fumigatus, this compound gave an MIC80 of 0.25 µg/mL (≈ 0.544 µM).

For the compound `CCC(C)n1ncn(-c2ccc(N3CCN(c4ccc(OCC5COC(Cn6cncn6)(c6ccc(Cl)cc6Cl)O5)cc4)CC3)cc2)c1=O` (stereo unspecified) [ITRACONAZOLE], the MIC80 against Trichophyton rubrum turned out to be 0.004 µg/mL (≈ 0.00567 µM); against Pichia kudriavzevii, 0.25 µg/mL (≈ 0.354 µM); in the assay on Candida tropicalis, 0.0625 µg/mL (≈ 0.0886 µM); against Candida albicans it was 0.016 µg/mL (≈ 0.0227 µM); against Cryptococcus neoformans, 0.004 µg/mL (≈ 0.00567 µM); with Candida parapsilosis it was 0.0625 µg/mL (≈ 0.0886 µM). The MIC80 against Aspergillus fumigatus turned out to be 1 µg/mL (≈ 1.42 µM).

Take `OC(CN1CCC(=NOCc2ccccc2Cl)CC1)(Cn1cncn1)c1ccc(F)cc1F` (racemic): the MIC80 against Trichophyton rubrum was determined as 0.0625 µg/mL (≈ 0.131 µM); in the assay with Pichia kudriavzevii it was 0.25 µg/mL (≈ 0.525 µM); in the assay with Candida tropicalis, 0.016 µg/mL (≈ 0.0336 µM); in the assay with Candida albicans it was 0.016 µg/mL (≈ 0.0336 µM); against Cryptococcus neoformans, 0.016 µg/mL (≈ 0.0336 µM); in the assay with Candida parapsilosis, 0.004 µg/mL (≈ 0.0084 µM). The same compound showed an MIC80 against Aspergillus fumigatus of 1 µg/mL (≈ 2.1 µM).

As for `OC(CN1CCC(=NOCc2ccc(F)cc2)CC1)(Cn1cncn1)c1ccc(F)cc1F` (racemic), the MIC80 stood at 0.0625 µg/mL (≈ 0.136 µM) against Trichophyton rubrum; 0.25 µg/mL (≈ 0.544 µM) in the assay with Pichia kudriavzevii; 0.0097 µg/mL (≈ 0.0211 µM) in the assay on Candida tropicalis; 0.016 µg/mL (≈ 0.0348 µM) against Candida albicans; 0.016 µg/mL (≈ 0.0348 µM) in the assay on Cryptococcus neoformans; 0.004 µg/mL (≈ 0.00871 µM) in the assay on Candida parapsilosis. The compound also had an MIC80 against Aspergillus fumigatus of 1 µg/mL (≈ 2.18 µM).

As to `OC(CN1CCC(=NOCc2ccc(C(F)(F)F)cc2)CC1)(Cn1cncn1)c1ccc(F)cc1F` (racemic), the MIC80 against Trichophyton rubrum was determined as 16 µg/mL (≈ 31.4 µM); in the assay with Pichia kudriavzevii it was 64 µg/mL (≈ 126 µM); against Candida tropicalis it was 64 µg/mL (≈ 126 µM); in the assay with Candida albicans it was 16 µg/mL (≈ 31.4 µM); against Cryptococcus neoformans, 16 µg/mL (≈ 31.4 µM); in the assay on Candida parapsilosis, 64 µg/mL (≈ 126 µM). In addition, the MIC80 in the assay with Aspergillus fumigatus was determined as 64 µg/mL (≈ 126 µM).

For the compound `OC(CN1CCC(=NOCc2ccc3ccccc3c2)CC1)(Cn1cncn1)c1ccc(F)cc1F` (racemic), the MIC80 came out at 0.0625 µg/mL (≈ 0.127 µM) in the assay on Trichophyton rubrum; 0.25 µg/mL (≈ 0.509 µM) with Pichia kudriavzevii; 0.016 µg/mL (≈ 0.0326 µM) in the assay with Candida tropicalis; 0.016 µg/mL (≈ 0.0326 µM) in the assay with Candida albicans; 0.016 µg/mL (≈ 0.0326 µM) with Cryptococcus neoformans; 0.016 µg/mL (≈ 0.0326 µM) against Candida parapsilosis. Further, in the assay on Aspergillus fumigatus, the MIC80 stood at 1 µg/mL (≈ 2.03 µM).

In the case of `N#Cc1ccc(CON=C2CCN(CC(O)(Cn3cncn3)c3ccc(F)cc3F)CC2)cc1` (racemic), the MIC80 in the assay with Trichophyton rubrum is 0.0625 µg/mL (≈ 0.134 µM); with Pichia kudriavzevii, 0.25 µg/mL (≈ 0.536 µM); in the assay with Candida tropicalis, 0.0625 µg/mL (≈ 0.134 µM); in the assay with Candida albicans, 0.0625 µg/mL (≈ 0.134 µM); with Cryptococcus neoformans, 0.016 µg/mL (≈ 0.0343 µM); against Candida parapsilosis, 0.0625 µg/mL (≈ 0.134 µM). The compound also came in with an MIC80 against Aspergillus fumigatus of 1 µg/mL (≈ 2.14 µM).

For the compound `OC(Cn1cncn1)(Cn1cncn1)c1ccc(F)cc1F` [FLUCONAZOLE], the MIC80 was 1 µg/mL (≈ 3.27 µM) with Trichophyton rubrum; 1 µg/mL (≈ 3.27 µM) with Pichia kudriavzevii; 1 µg/mL (≈ 3.27 µM) against Candida tropicalis; 0.25 µg/mL (≈ 0.816 µM) with Candida albicans; 0.0625 µg/mL (≈ 0.204 µM) in the assay with Cryptococcus neoformans; 0.25 µg/mL (≈ 0.816 µM) against Candida parapsilosis. This compound also registered an MIC80 in the assay on Aspergillus fumigatus greater than 64 µg/mL.

Turning to `CCCc1ccc(CON=C2CCN(CC(O)(Cn3cncn3)c3ccc(F)cc3F)CC2)cc1` (racemic), the MIC80 turned out to be 4 µg/mL (≈ 8.27 µM) in the assay with Trichophyton rubrum; 64 µg/mL (≈ 132 µM) in the assay on Pichia kudriavzevii; 64 µg/mL (≈ 132 µM) in the assay on Candida tropicalis; 16 µg/mL (≈ 33.1 µM) with Candida albicans; 16 µg/mL (≈ 33.1 µM) in the assay on Cryptococcus neoformans; 64 µg/mL (≈ 132 µM) against Candida parapsilosis. This compound also came in with an MIC80 against Aspergillus fumigatus of 64 µg/mL (≈ 132 µM).

As to `C[C@@H](c1ncncc1F)[C@](O)(Cn1cncn1)c1ccc(F)cc1F` [VORICONAZOLE], the MIC80 against Trichophyton rubrum was determined as 0.004 µg/mL (≈ 0.0115 µM); with Pichia kudriavzevii it was 0.016 µg/mL (≈ 0.0458 µM); with Candida tropicalis it was 0.004 µg/mL (≈ 0.0115 µM); against Candida albicans, 0.004 µg/mL (≈ 0.0115 µM); in the assay with Cryptococcus neoformans, 0.004 µg/mL (≈ 0.0115 µM); in the assay with Candida parapsilosis it was 0.004 µg/mL (≈ 0.0115 µM). In addition, the MIC80 in the assay with Aspergillus fumigatus turned out to be 0.0625 µg/mL (≈ 0.179 µM).

As to `OC(CN1CCC(=NOCc2ccc(Br)cc2)CC1)(Cn1cncn1)c1ccc(F)cc1F` (racemic), the MIC80 with Trichophyton rubrum worked out at 0.016 µg/mL (≈ 0.0307 µM); with Pichia kudriavzevii it was 0.25 µg/mL (≈ 0.48 µM); with Candida tropicalis, 0.004 µg/mL (≈ 0.00769 µM); in the assay on Candida albicans it was 0.016 µg/mL (≈ 0.0307 µM); in the assay on Cryptococcus neoformans, 0.016 µg/mL (≈ 0.0307 µM); against Candida parapsilosis it was 0.016 µg/mL (≈ 0.0307 µM). This compound also came in with an MIC80 in the assay on Aspergillus fumigatus of 1 µg/mL (≈ 1.92 µM).

For `Cc1ccc(CON=C2CCN(CC(O)(Cn3cncn3)c3ccc(F)cc3F)CC2)cc1` (racemic), the MIC80 with Trichophyton rubrum was 16 µg/mL (≈ 35.1 µM); against Pichia kudriavzevii, 16 µg/mL (≈ 35.1 µM); in the assay on Candida tropicalis it was 64 µg/mL (≈ 141 µM); with Candida albicans it was 64 µg/mL (≈ 141 µM); with Cryptococcus neoformans, 16 µg/mL (≈ 35.1 µM); in the assay on Candida parapsilosis, 64 µg/mL (≈ 141 µM). The compound further returned an MIC80 against Aspergillus fumigatus of 64 µg/mL (≈ 141 µM).

As for `Cc1ccccc1CON=C1CCN(CC(O)(Cn2cncn2)c2ccc(F)cc2F)CC1` (racemic), the MIC80 in the assay with Trichophyton rubrum came out at 16 µg/mL (≈ 35.1 µM); against Pichia kudriavzevii, 64 µg/mL (≈ 141 µM); against Candida tropicalis it was 64 µg/mL (≈ 141 µM); with Candida albicans it was 16 µg/mL (≈ 35.1 µM); against Cryptococcus neoformans, 64 µg/mL (≈ 141 µM); with Candida parapsilosis it was 64 µg/mL (≈ 141 µM). The compound also came in with an MIC80 against Aspergillus fumigatus of 64 µg/mL (≈ 141 µM).
